Read-outs that look alike come from different tables or passages of the source.
Legend:
[1] = target: T1, full-length beta-Catenin (Uniprot ID P35222) (Homo sapiens, UniProt P35222); assay: Fluorescence polarization IC50 (beta-catenin / 5FAM-TCF4 10-53 competition); assay type: binding
T1 construct: 10 nM full-length beta-Catenin (Uniprot ID P35222)
T1 sequence (P35222 1-781): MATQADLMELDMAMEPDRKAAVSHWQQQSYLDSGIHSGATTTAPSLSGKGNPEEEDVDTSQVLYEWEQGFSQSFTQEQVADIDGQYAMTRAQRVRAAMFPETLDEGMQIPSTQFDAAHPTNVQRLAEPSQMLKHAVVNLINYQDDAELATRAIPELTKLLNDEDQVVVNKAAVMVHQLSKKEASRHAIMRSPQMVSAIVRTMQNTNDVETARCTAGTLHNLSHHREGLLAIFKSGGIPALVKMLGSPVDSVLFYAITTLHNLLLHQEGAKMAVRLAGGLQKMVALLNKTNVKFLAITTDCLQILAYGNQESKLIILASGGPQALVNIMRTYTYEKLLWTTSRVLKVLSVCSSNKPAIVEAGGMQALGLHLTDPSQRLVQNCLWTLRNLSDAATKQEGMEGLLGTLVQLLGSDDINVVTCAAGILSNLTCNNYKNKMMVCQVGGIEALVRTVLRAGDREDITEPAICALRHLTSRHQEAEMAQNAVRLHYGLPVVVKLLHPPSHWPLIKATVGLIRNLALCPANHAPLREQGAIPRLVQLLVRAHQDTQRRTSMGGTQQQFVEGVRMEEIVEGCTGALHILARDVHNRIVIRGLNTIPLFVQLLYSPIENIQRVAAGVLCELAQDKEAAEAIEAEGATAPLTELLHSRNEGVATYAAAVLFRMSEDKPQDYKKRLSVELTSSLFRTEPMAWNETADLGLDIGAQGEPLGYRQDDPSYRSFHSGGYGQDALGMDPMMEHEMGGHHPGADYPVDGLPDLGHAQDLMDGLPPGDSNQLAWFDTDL

[2] = target: T2, beta-catenin/TCF4 engagement (Homo sapiens, UniProt P35222); assay: Nano-BRET target engagement assay (B-cat-Halo & TCF4-Luc in HEK293 cells); assay type: cell-based; settings: read-out: NanoBRET Abs IC50
T2 construct: expressed in transfected cells; host or cells: HEK293
T2 sequence (P35222 1-781): T1 sequence (P35222 1-781)

[3] = fluorescence polarization; read-out: beta-Catenin FP IC50
[4] = read-out: beta-Catenin FP IC50; fluorescence polarization

| SMILES | IC50 [1, 3] | IC50 [2] | IC50 [1, 4] |
| --- | --- | --- | --- |
| CC(=O)N1CCC[C@]12CC=CCCCC1(CCCC=CCCCOC(=O)N3CC[C@@](C(=O)N[C@@H](Cc4ccsc4)C(=O)N[C@@H](Cc4csc5ccccc45)C(=O)N[C@@H](CCC(N)=O)C(N)=O)(C3)NC(=O)[C@H](CCC(=O)N3CCC(N4CCCCC4)CC3)NC(=O)[C@H](Cc3ccccc3)NC(=O)[C@H](C)NC(=O)[C@H](C)NC(=O)[C@H](CN(CC(=O)O)CC(F)(F)F)NC(=O)[C@H](CC(=O)O)NC1=O)NC(=O)[C@H](CC(C)(C)C)NC(=O)[C@H](CC(=O)O)NC2=O (stereo partly drawn) [I-1940, Ac-PL3-Asp-Npg-B5-Asp-TfeGA-Ala-Ala-Phe-[4Pippip]GlnR-PyrS2-3Thi-BztA-Gln-NH2] | 6 nM | 15400 nM | – |
| CC(=O)N1CCC[C@]12CC=CCCCC1(CCCC=CCCCOC(=O)N3CC[C@@](C(=O)N[C@@H](Cc4ccsc4)C(=O)N[C@@H](Cc4csc5ccccc45)C(=O)N[C@@H](CCC(N)=O)C(N)=O)(C3)NC(=O)[C@H](CCC(=O)N3CCNCC3)NC(=O)[C@H](Cc3ccccc3)NC(=O)[C@H](C)NC(=O)[C@H](C)NC(=O)[C@H](CN(CC(=O)O)CC(F)(F)F)NC(=O)[C@H](CC(=O)O)NC1=O)NC(=O)[C@H](CC(C)(C)C)NC(=O)[C@H](CC(=O)O)NC2=O (stereo partly drawn) [I-1941, Ac-PL3-Asp-Npg-B5-Asp-TfeGA-Ala-Ala-Phe-[Ppz]GlnR-PyrS2-3Thi-BztA-Gln-NH2] | 6 nM | 12900 nM | – |
| CC(=O)N1CCC[C@]12CC=CCCCC1(CCCC=CCCCOC(=O)N3CC[C@@](C(=O)N[C@@H](Cc4ccsc4)C(=O)N[C@@H](Cc4csc5ccccc45)C(=O)N[C@@H](CCC(N)=O)C(N)=O)(C3)NC(=O)[C@H](CCC(=O)NCc3ccccc3)NC(=O)[C@H](Cc3ccccc3)NC(=O)[C@H](C)NC(=O)[C@H](C)NC(=O)[C@H](CN(CC(=O)O)CC(F)(F)F)NC(=O)[C@H](CC(=O)O)NC1=O)NC(=O)[C@H](CC(C)(C)C)NC(=O)[C@H](CC(=O)O)NC2=O (stereo partly drawn) [I-1942, Ac-PL3-Asp-Npg-B5-Asp-TfeGA-Ala-Ala-Phe-[NHBn]GlnR-PyrS2-3Thi-BztA-Gln-NH2] | 11 nM | 7900 nM | – |
| CC(=O)N1CCC[C@]12CC=CCCCC1(CCCC=CCCCOC(=O)N3CC[C@@](C(=O)N[C@@H](Cc4ccsc4)C(=O)N[C@@H](Cc4csc5ccccc45)C(=O)N[C@@H](CCC(N)=O)C(N)=O)(C3)NC(=O)[C@H](CCC(=O)N3CCOCC3)NC(=O)[C@H](Cc3ccccc3)NC(=O)[C@H](C)NC(=O)[C@H](C)NC(=O)[C@H](CN(CC(=O)O)CC(F)(F)F)NC(=O)[C@H](CC(=O)O)NC1=O)NC(=O)[C@H](CC(C)(C)C)NC(=O)[C@H](CC(=O)O)NC2=O (stereo partly drawn) [I-1943, Ac-PL3-Asp-Npg-B5-Asp-TfeGA-Ala-Ala-Phe-[Morph]GlnR-PyrS2-3Thi-BztA-Gln-NH2] | 7 nM | 3800 nM | – |
| CC(=O)N1CCC[C@]12CC=CCCCC1(CCCC=CCCCOC(=O)N3CC[C@@](C(=O)N[C@@H](Cc4ccsc4)C(=O)N[C@@H](Cc4csc5ccccc45)C(=O)N[C@@H](CCC(N)=O)C(N)=O)(C3)NC(=O)[C@H](CC(C)C)NC(=O)[C@H](Cc3ccccc3)NC(=O)[C@H](C)NC(=O)[C@H](C)NC(=O)[C@H](CCC(=O)OCCSSc3ccccn3)NC(=O)[C@H](CC(=O)O)NC1=O)NC(=O)[C@H](CC(C)(C)C)NC(=O)[C@H](CC(=O)O)NC2=O (stereo partly drawn) [I-1951, Ac-PL3-Asp-Npg-B5-Asp-[EtSSpy]GluE-Ala-Ala-Phe-Leu-PyrS2-3Thi-BztA-Gln-NH2] | 264 nM | > 20000 nM | – |
| CC(=O)N1CCC[C@]12CC=CCCCC1(CCCC=CCCCOC(=O)N3CC[C@@](C(=O)N[C@@H](Cc4ccsc4)C(=O)N[C@@H](Cc4csc5ccccc45)C(=O)N[C@@H](CCC(N)=O)C(N)=O)(C3)NC(=O)[C@H](CC(C)C)NC(=O)[C@H](Cc3ccccc3)NC(=O)[C@H](C)NC(=O)[C@H](C)NC(=O)[C@H](CC(=O)O)NC(=O)[C@H](CC(=O)O)NC1=O)NC(=O)[C@H](CC(C)(C)C)NC(=O)[C@H](CC(=O)OCCSSc1ccccc1)NC2=O (stereo partly drawn) [I-1952, Ac-PL3-[EtSSPh]AspE-Npg-B5-Asp-Asp-Ala-Ala-Phe-Leu-PyrS2-3Thi-BztA-Gln-NH2] | – | > 20000 nM | 923 nM |
| CC(=O)N1CCC[C@]12CC=CCCCC1(CCCC=CCCCOC(=O)N3CC[C@@](C(=O)N[C@@H](Cc4ccsc4)C(=O)N[C@@H](Cc4csc5ccccc45)C(=O)N[C@@H](CCC(N)=O)C(N)=O)(C3)NC(=O)[C@H](CC(C)C)NC(=O)[C@H](Cc3ccccc3)NC(=O)[C@H](C)NC(=O)[C@H](C)NC(=O)[C@H](CC(=O)O)NC(=O)[C@H](CC(=O)O)NC1=O)NC(=O)[C@H](CC(C)(C)C)NC(=O)[C@H](CC(=O)OCCSSc1ccccc1)NC2=O (stereo partly drawn) [I-1953, Ac-PL3-[EtSSPh]AspE-Npg-B5-Asp-Asp-Ala-Ala-Phe-Leu-PyrS2-3Thi-BztA-Gln-NH2] | – | > 20000 nM | 306 nM |
| CC(=O)N1CCC[C@]12CC=CCCCC1(CCCC=CCCCOC(=O)N3CC[C@@](C(=O)N[C@@H](Cc4ccsc4)C(=O)N[C@@H](Cc4csc5ccccc45)C(=O)N[C@@H](CCC(N)=O)C(N)=O)(C3)NC(=O)[C@H](CC(C)C)NC(=O)[C@H](Cc3ccccc3)NC(=O)[C@H](C)NC(=O)[C@H](C)NC(=O)[C@H](CC(=O)O)NC(=O)[C@H](CC(=O)OCCSSc3ccccc3)NC1=O)NC(=O)[C@H](CC(C)(C)C)NC(=O)[C@H](CC(=O)O)NC2=O (stereo partly drawn) [I-1954, Ac-PL3-Asp-Npg-B5-[EtSSPh]AspE-Asp-Ala-Ala-Phe-Leu-PyrS2-3Thi-BztA-Gln-NH2] | – | > 20000 nM | 994 nM |
| CC(=O)N1CCC[C@]12CC=CCCCC1(CCCC=CCCCOC(=O)N3CC[C@@](C(=O)N[C@@H](Cc4ccsc4)C(=O)N[C@@H](Cc4csc5ccccc45)C(=O)N[C@@H](CCC(N)=O)C(N)=O)(C3)NC(=O)[C@H](CC(C)C)NC(=O)[C@H](Cc3ccccc3)NC(=O)[C@H](C)NC(=O)[C@H](C)NC(=O)[C@H](CCC(=O)OCCSSc3ccccc3)NC(=O)[C@H](CC(=O)O)NC1=O)NC(=O)[C@H](CC(C)(C)C)NC(=O)[C@H](CC(=O)O)NC2=O (stereo partly drawn) [I-1958, Ac-PL3-Asp-Npg-B5-Asp-[EtSSPh]GluE-Ala-Ala-Phe-Leu-PyrS2-3Thi-BztA-Gln-NH2] | – | > 20000 nM | 1540 nM |

Now from value to compound, other results behind:

| IC50 [1, 3] | IC50 [2] | SMILES | IC50 [1, 4] |
| --- | --- | --- | --- |
| 96 nM | 28500 nM | CC(=O)N1CCC[C@]12CC=CCCCC1(CCCC=CCCCOC(=O)N3CC[C@@](C(=O)N[C@@H](Cc4ccsc4)C(=O)N[C@@H](Cc4csc5ccccc45)C(=O)N[C@@H](CCC(N)=O)C(N)=O)(C3)NC(=O)[C@H](CC(C)C)NC(=O)[C@H](Cc3ccccc3)NC(=O)[C@H](C)NC(=O)[C@H](C)NC(=O)[C@H](CCC(=O)S)NC(=O)[C@H](CC(=O)O)NC1=O)NC(=O)[C@H](CC(C)(C)C)NC(=O)[C@H](CC(=O)O)NC2=O (stereo partly drawn) [I-1949, Ac-PL3-Asp-Npg-B5-Asp-GluSH-Ala-Ala-Phe-Leu-PyrS2-3Thi-BztA-Gln-NH2] | – |
| 412 nM | > 20000 nM | CCCCCCSSCCOC(=O)C[C@@H]1NC(=O)[C@]2(CC=CCCCC3(CCCC=CCCCOC(=O)N4CC[C@@](C(=O)N[C@@H](Cc5ccsc5)C(=O)N[C@@H](Cc5csc6ccccc56)C(=O)N[C@@H](CCC(N)=O)C(N)=O)(C4)NC(=O)[C@H](CC(C)C)NC(=O)[C@H](Cc4ccccc4)NC(=O)[C@H](C)NC(=O)[C@H](C)NC(=O)[C@H](CC(=O)O)NC(=O)[C@H](CC(=O)O)NC3=O)NC(=O)[C@H](CC(C)(C)C)NC1=O)CCCN2C(C)=O (stereo partly drawn) [I-1959, Ac-PL3-[EtSSHex]AspE-Npg-B5-Asp-Asp-Ala-Ala-Phe-Leu-PyrS2-3Thi-BztA-Gln-NH2] | – |
| 2100 nM | > 20000 nM | CCCCCCSSCCOC(=O)C[C@@H]1NC(=O)C2(CCCC=CCCCOC(=O)N3CC[C@@](C(=O)N[C@@H](Cc4ccsc4)C(=O)N[C@@H](Cc4csc5ccccc45)C(=O)N[C@@H](CCC(N)=O)C(N)=O)(C3)NC(=O)[C@H](CC(C)C)NC(=O)[C@H](Cc3ccccc3)NC(=O)[C@H](C)NC(=O)[C@H](C)NC(=O)[C@H](CC(=O)O)NC1=O)CCCC=CC[C@]1(CCCN1C(C)=O)C(=O)N[C@@H](CC(=O)O)C(=O)N[C@@H](CC(C)(C)C)C(=O)N2 (stereo partly drawn) [I-1961, Ac-PL3-Asp-Npg-B5-[EtSSHex]AspE-Asp-Ala-Ala-Phe-Leu-PyrS2-3Thi-BztA-Gln-NH2] | – |
| 1600 nM | > 20000 nM | CCCCCCSSCCOC(=O)C[C@@H]1NC(=O)[C@H](CC(=O)O)NC(=O)C2(CCCC=CCCCOC(=O)N3CC[C@@](C(=O)N[C@@H](Cc4ccsc4)C(=O)N[C@@H](Cc4csc5ccccc45)C(=O)N[C@@H](CCC(N)=O)C(N)=O)(C3)NC(=O)[C@H](CC(C)C)NC(=O)[C@H](Cc3ccccc3)NC(=O)[C@H](C)NC(=O)[C@H](C)NC1=O)CCCC=CC[C@]1(CCCN1C(C)=O)C(=O)N[C@@H](CC(=O)O)C(=O)N[C@@H](CC(C)(C)C)C(=O)N2 (stereo partly drawn) [I-1962, Ac-PL3-Asp-Npg-B5-Asp-[EtSSHex]AspE-Ala-Ala-Phe-Leu-PyrS2-3Thi-BztA-Gln-NH2] | – |

Source: patent US20240116985A1, “STAPLED PEPTIDES AND METHODS THEREOF” (priority 2020, published 2024)
